We go through 1 compound from patent publication US8227409B2, “Diketopiperazine microparticles with defined isomer contents” (MannKind Corporation, priority 2009, dated 2012).

The nature of data set [1]: Laser diffraction of powder emitted from dry powder inhalers: VMGD and container emptying. It is filed as physicochemical. Particulars: 56% trans, SSA 55, pressure drop 4 kPa. From the text: Laser diffraction of dry powder formulations emitted from dry powder inhalers is a common methodology employed to characterize the level of de-agglomeration subjected to a powder. The methodology indicates a measure of geometric size rather than aerodynamic size as occurring in industry standard impaction methodologies. Typically, the geometric size of the emitted powder includes a volumetric distribution characterized by the median particle size, VMGD. Importantly, geometric sizes of the emitted particles are discerned with heightened resolution as compared to the aerodynamic sizes provided by impaction methods. Smaller sizes are preferred and result in greater likelihood of individual particles being delivered to the pulmonary tract. Thus, differences in inhaler de-agglomeration and ultimate performance can be easier to resolve with diffraction. In these experiments, inhalers were tested with laser diffraction at pressures analogous to actual patient inspiratory capacities to determine the effectiveness of the inhalation system to de-agglomerate powder formulations. Specifically, the formulations included cohesive diketopiperazine powders with an active insulin loaded ingredient and without. […] Reported in Table 6 are a VMGD and an efficiency of the container emptying during the testing. FDKP powders have an approximate Carr's index of 50 and TI powder has an approximate Carr's index of 40.

The nature of data set [2]: Solubility (stated in words). It is filed as physicochemical.

The structures appear in SMILES notation.

As to `O=C(O)/C=C/C(=O)NCCCCC1NC(=O)C(CCCCNC(=O)/C=C/C(=O)O)NC1=O` (stereo not drawn) [FDKP, 2,5-diketo-3,6-bis(N-fumaryl-4-aminobutyl)piperazine], the entries for the “% CE” value in data set [1] (DPI 2) and in data set [1] (MedTone) were 92.5% and 89.5%, respectively. In addition, the VMGD in data set [1] (DPI 2) was 6.800 micron; in data set [1] (MedTone) it was 21.200 micron. The solubility result is given as “readily soluble” in data set [2] (at neutral or basic pH) and “low solubility” in data set [2] (in acid).
